PubChem BioAssay (NCI)
Several values for one entry are separate records, joined by “and”; a condition that tells them apart may be missing. Equal values may be shown once.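 96-well plates; 48 h exposure; 5 concentrations. Endpoints by linear interpolation between flanking doses. Not reached: highest tested concentration assigned. Abbreviation: GI50, concentration required for 50% inhibition of growth. TGI marks complete inhibition of growth.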

Columns and labels:
Experiment in all cases: NCI tumour cell line growth inhibition, 48 h
[1] = test system: ACHN renal
[2] = test system: IGROV1 ovarian
[3] = test system: NCI-H226 lung
[4] = test system: OVCAR-8 ovarian
[5] = test system: PC-3 prostate
[6] = test system: RXF 393 renal
[7] = test system: SK-MEL-5 melanoma
[8] = test system: SW-620 colon
[9] = test system: T-47D breast
[10] = test system: UO-31 renal

SMILES | GI50 [1] | TGI [1] | GI50 [2] | TGI [2] | GI50 [3] | TGI [3] | GI50 [4] | TGI [4] | GI50 [5] | TGI [5] | GI50 [6] | TGI [6] | GI50 [7] | TGI [7] | GI50 [8] | TGI [8] | GI50 [9] | TGI [9] | GI50 [10] | TGI [10]
C[C@@H](C(=O)Nc1ccc(Cl)cc1)C1CCC(c2ccnc3ccc(F)cc23)CC1 (stereo partly drawn) | 4.61 µM | > 100 µM | 9.11 µM | > 100 µM | 13.7 µM | > 100 µM | 21 µM | > 100 µM | 3.43 µM | > 100 µM | 3.6 µM | 26.7 µM | 3.22 µM | 11.8 µM | 19 µM | > 100 µM | 3.36 µM | 46.1 µM | 3.94 µM | > 100 µM
O=C1c2ccccc2-c2c1c1ccccc1c(=O)n2CCCNCCCNCCCn1c2c(c3ccccc3c1=O)C(=O)c1ccccc1-2 | < 0.01 µM | 0.388 µM | < 0.01 µM | < 0.0416 µM | < 0.014 µM | 0.903 µM | < 0.01 µM | 0.201 µM | 0.0397 µM | 0.142 µM | 0.0569 µM | 1.11 µM | 0.12 µM | 1.22 µM | < 0.01 µM | 0.15 µM | 1.64 µM | 6.4 µM | 0.0878 µM | 0.215 µM
COc1cccc(/C=C/C(=O)c2cccc(Nc3nc(Nc4ccccc4)nc(Nc4ccccc4)n3)c2)c1 | 67.3 µM | > 100 µM | 5.47 µM | 33.2 µM | 24.2 µM | > 67.9 µM | 9.91 µM | > 100 µM | 5.21 µM | > 67.2 µM | 10.7 µM | 35.6 µM | 13 µM | > 77.1 µM | 3.68 µM | > 48.3 µM | 6.15 µM | > 79.8 µM | 7.36 µM | 57.5 µM
COc1c(CCC[P+](c2ccccc2)(c2ccccc2)c2ccccc2)cc2c(c1OC)OCO2 | 5.34 µM | 29.5 µM | 1.02 µM | 10.7 µM | 3.3 µM | 42.2 µM | 2.66 µM | > 100 µM | 0.961 µM | 22.4 µM | 2.05 µM | 11.6 µM | 1.33 µM | 2.81 µM | 1.93 µM | 11.1 µM | 0.419 µM | 35.3 µM | 11.9 µM | 47.2 µM
COc1cc(C2c3cc4c(cc3[C@@H](Nc3ccc(C#N)cc3)C3COC(=O)[C@H]23)OCO4)cc(OC)c1O (stereo partly drawn) | 0.128 µM | 1.24 µM and 2.41 µM | 1.76 µM | 31.1 µM and 8.65 µM | 0.239 µM and 0.242 µM | 3.46 µM and 1.43 µM and 2.06 µM | 1.51 µM |  | 2.81 µM | 50 µM and > 100 µM | 2.53 µM | 4.96 µM and 9.01 µM | 0.911 µM and 0.54 µM | 4.68 µM and 2.68 µM and 2.06 µM | 0.781 µM and 0.263 µM | 50 µM and 75 µM and 11.4 µM | 0.46 µM |  | 0.26 µM and 0.968 µM | 7.14 µM and 5.42 µM and 2.64 µM
CC/C=C\C=C/C(=O)N/C=C/CC1Cc2cccc(O)c2C(=O)O1 (stereo not drawn) | 22.3 µM | 52.1 µM | 38 µM | > 100 µM | 39.6 µM | > 100 µM | 30 µM | > 100 µM | 25.3 µM | > 100 µM | 16.1 µM | 35.8 µM | 5.63 µM | 27.3 µM | 13.8 µM | 28.2 µM | 36.1 µM | > 100 µM | 35.4 µM | > 100 µM
CCN(CC)S(=O)(=O)c1ccc(OC)c(Nc2ncc(-c3ccccc3)o2)c1 | > 22.7 µM | > 25 µM | > 25 µM | > 25 µM | > 5.28 µM | > 25 µM | > 25 µM | > 25 µM | > 15.9 µM | > 25 µM | > 10.6 µM | > 25 µM | > 12.2 µM | > 25 µM | > 23.7 µM | > 25 µM | > 11 µM | 24.4 µM | > 12.9 µM | > 25 µM
Cc1occc1C(=S)Nc1ccc(Cl)c(COC(C)(C)C)c1 |  | 31.1 µM |  | 31 µM |  | 34.2 µM |  | 31.5 µM |  | 30.6 µM |  | 32.3 µM |  | 33.4 µM |  | 33.5 µM |  | 26.9 µM |  | 26 µM
COC(=O)[C@]12CC[C@@H](C)[C@H](C)[C@@H]1C1=CC[C@@H]3[C@@]4(C)C[C@@H](OC(C)=O)[C@H](O)[C@@](C)(COC(C)=O)[C@@H]4[C@H](O)C[C@@]3(C)[C@]1(C)CC2 | 2.83 µM | 9.17 µM | 1.87 µM | 4.81 µM | 3.19 µM | 8.54 µM | 2.36 µM | 5.91 µM | 1.86 µM | 7.05 µM | 2.13 µM | 5.05 µM | 1.78 µM | 3.66 µM | 2.75 µM | 8.76 µM | 2.44 µM | 8.02 µM | 2.01 µM | 7.2 µM
CNC(=O)n1ccc2cc(Oc3ccnc(NC(=O)c4ccc(C5CCN(CCO)CC5)cc4)c3)c(OCCOC)cc21 | 3.16 µM | 10.7 µM | 5.65 µM | 20.7 µM | 12.1 µM | 31.3 µM | 4.51 µM | 19.5 µM | 6.1 µM | 26.2 µM | 1.34 µM | 3.09 µM | 1.96 µM | 3.86 µM | 6.3 µM | 18.9 µM | 11.8 µM | 36 µM | 16.5 µM | 33.2 µM
Cc1ccc(S(=O)(=O)N2CCSCCSCCSCCSCC2)cc1 |  | > 100 µM |  | > 100 µM |  | > 82.2 µM |  | 48.4 µM |  | > 100 µM |  | > 45.9 µM |  | > 86.9 µM |  | > 100 µM |  | 74.1 µM |  | > 81.3 µM
O=C(Cn1ccc(=O)[nH]c1=O)Nc1ccc(C(=O)O)c(O)c1 |  | > 100 µM |  | > 100 µM |  | > 100 µM |  | > 100 µM |  | > 100 µM |  | > 100 µM |  | > 100 µM |  | > 100 µM |  | > 100 µM |  | > 100 µM
